Results published in patent publication US10420831B2, “Inactivation of viruses by delipidation” (priority 2016, dated 2019).
Read-outs that look alike come from different tables or passages of the source. Marks after values point to notes of the source that are not given here.

Key:
[1] = system: human influenza virus H1N1 A/WSN/33 strain; assay type: cell-based; details: 50 mM MBCD
PRRSV strain ND99-14 = assay: Inactivation kinetics of PRRSV, live virus TCID50 on MARC145 cells; assay type: cell-based
Procedure: Inactivation kinetics experiments were conducted using PRRSV strain ND99-14, described in application U.S. Ser. No. 62/296,658, filed Feb. 18, 2016. […] Room temperature is between about 20° C. and about 25° C., and optimally between about 22° C. and about 24° C.
[…] […] Aliquots for each time point were stored at 4° C. and −70° C. until further use.
After the 24 hour sample was collected, virus was transferred to a new container. […] […] […] Aliquots for each time point were stored at 4° C. and −70° C. until further use.
Ten-fold serial dilutions (10^−1-10^−9) of mock inactivated and inactivated virus were added to MARC145 cells cultured on 96 well plates. The plates were incubated at 37° C. and 5% CO2 for 96 hours to allow live virus to infect cells. Virus replication was determined by observation of cytopathic effect (CPE) due to virus infection of the MARC145 cells. Each well containing a virus dilution was scored either positive or negative with regards to CPE and the resulting numbers of positive or negatice wells for each dilution were used to determine the TCID50/mL using the Reed-Muench TCID50 calculation. The mock inactivated virus was treated to the same media and temperature conditions as the inactivated virus without the addition of the inactivation agent.

methyl β-cyclodextrin [MBCD]
IFV infectivity reduced, compared to the mock-treatment ([1]; 37° C., 30 minutes, […]): 2250 fold
PFU/mL ([1]; IFV, 37° C., 30 minutes): 4.0 × 10^5 PFU/mL
less infectious in vitro, compared to the mock treatment ([1]; IFV, 45 minute treatment): over 10,000 fold
PFU/mL ([1]; IFV, end-over-end rotation at 37° C. for 45 minutes): 1.0 × 10^3 PFU/mL
live virus reduced (PRRSV strain ND99-14; 20 mM MBCD, after 15 minutes of incubation): approximately 2.5 logs
PRRS virus titer (PRRSV strain ND99-14; 20 mM MBCD, room temperature, hour 0.25, samples stored at 4° C.): 5.8^a Log10 TCID50/mL
PRRS virus titer (PRRSV strain ND99-14; 20 mM MBCD, room temperature, hour 0.25, samples stored at −70° C.): 3.3 Log10 TCID50/mL
PRRS virus titer (PRRSV strain ND99-14; 20 mM MBCD, room temperature, hour 4, samples stored at 4° C.): 5.8 Log10 TCID50/mL
PRRS virus titer (PRRSV strain ND99-14; 20 mM MBCD, room temperature, hour 8, samples stored at 4° C.): 5.9 Log10 TCID50/mL
PRRS virus titer (PRRSV strain ND99-14; 20 mM MBCD, room temperature, hour 8, samples stored at −70° C.): 2.8 Log10 TCID50/mL
PRRS virus titer (PRRSV strain ND99-14; 20 mM MBCD, room temperature, hour 12, samples stored at 4° C.): 5.6 Log10 TCID50/mL
PRRS virus titer (PRRSV strain ND99-14; 20 mM MBCD, room temperature, hour 12, samples stored at −70° C.): 3.2 Log10 TCID50/mL
PRRS virus titer (PRRSV strain ND99-14; 20 mM MBCD, room temperature, hour 16, samples stored at 4° C.): 5.6 Log10 TCID50/mL
PRRS virus titer (PRRSV strain ND99-14; 20 mM MBCD, room temperature, hour 16, samples stored at −70° C.): 3.2 Log10 TCID50/mL
PRRS virus titer (PRRSV strain ND99-14; 20 mM MBCD, room temperature, hour 20, samples stored at 4° C.): 5.6 Log10 TCID50/mL
PRRS virus titer (PRRSV strain ND99-14; 20 mM MBCD, room temperature, hour 20, samples stored at −70° C.): 3.4 Log10 TCID50/mL
PRRS virus titer (PRRSV strain ND99-14; 20 mM MBCD, room temperature, hour 24, samples stored at 4° C.): 5.6 Log10 TCID50/mL
PRRS virus titer (PRRSV strain ND99-14; 20 mM MBCD, room temperature, hour 24, samples stored at −70° C.): 3.6 Log10 TCID50/mL
PRRS virus titer (PRRSV strain ND99-14; 40 mM MBCD (second 20 mM added at 24 h), hour 30, samples stored at 4° C.): 0 Log10 TCID50/mL
PRRS virus titer (PRRSV strain ND99-14; 40 mM MBCD (second 20 mM added at 24 h), hour 30, samples stored at −70° C.): 0 Log10 TCID50/mL
PRRS virus titer (PRRSV strain ND99-14; 40 mM MBCD (second 20 mM added at 24 h), hour 36, samples stored at 4° C.): 0 Log10 TCID50/mL
PRRS virus titer (PRRSV strain ND99-14; 40 mM MBCD (second 20 mM added at 24 h), hour 36, samples stored at −70° C.): 0 Log10 TCID50/mL
PRRS virus titer (PRRSV strain ND99-14; 40 mM MBCD (second 20 mM added at 24 h), hour 42, samples stored at 4° C.): 0 Log10 TCID50/mL
PRRS virus titer (PRRSV strain ND99-14; 40 mM MBCD (second 20 mM added at 24 h), hour 42, samples stored at −70° C.): 0 Log10 TCID50/mL
PRRS virus titer (PRRSV strain ND99-14; 40 mM MBCD (second 20 mM added at 24 h), hour 48, samples stored at 4° C.): 0 Log10 TCID50/mL
PRRS virus titer (PRRSV strain ND99-14; 40 mM MBCD (second 20 mM added at 24 h), hour 48, samples stored at −70° C.): 0 Log10 TCID50/mL
PRRS virus titer (PRRSV strain ND99-14; 40 mM MBCD (second 20 mM added at 24 h), hour 56, samples stored at 4° C.): 0 Log10 TCID50/mL
PRRS virus titer (PRRSV strain ND99-14; 40 mM MBCD (second 20 mM added at 24 h), hour 56, samples stored at −70° C.): 0 Log10 TCID50/mL
PRRS virus titer (PRRSV strain ND99-14; 40 mM MBCD (second 20 mM added at 24 h), hour 64, samples stored at 4° C.): 0 Log10 TCID50/mL
PRRS virus titer (PRRSV strain ND99-14; 40 mM MBCD (second 20 mM added at 24 h), hour 64, samples stored at −70° C.): 0 Log10 TCID50/mL
PRRS virus titer (PRRSV strain ND99-14; 40 mM MBCD (second 20 mM added at 24 h), hour 72, samples stored at 4° C.): 0 Log10 TCID50/mL
PRRS virus titer (PRRSV strain ND99-14; 40 mM MBCD (second 20 mM added at 24 h), hour 72, samples stored at −70° C.): 0 Log10 TCID50/mL
PRRS virus titer (PRRSV strain ND99-14; 40 mM MBCD (second 20 mM added at 24 h), hour 84, samples stored at 4° C.): 0 Log10 TCID50/mL
PRRS virus titer (PRRSV strain ND99-14; 40 mM MBCD (second 20 mM added at 24 h), hour 84, samples stored at −70° C.): 0 Log10 TCID50/mL
PRRS virus titer (PRRSV strain ND99-14; 40 mM MBCD (second 20 mM added at 24 h), hour 96, samples stored at 4° C.): 0 Log10 TCID50/mL
PRRS virus titer (PRRSV strain ND99-14; 40 mM MBCD (second 20 mM added at 24 h), hour 96, samples stored at −70° C.): 0 Log10 TCID50/mL
titer of PRRS virus that could be inactivated (PRRSV strain ND99-14; 40 mM MBCD added in a 2 step process): at least 8 log10 TCID50/mL
virus level after second addition of MBCD (in words) (PRRSV strain ND99-14; second addition of 20 mM MBCD at 24 hours, next time point (30 hours)): undetectable levels
less virus when stored at −70° C. versus 4° C. (PRRSV strain ND99-14; time point samples with detectable live virus): at least 100 fold
